# Experimental data reported in patent publication US20100152150A1, “THE APPLICATION OF MARINE STEROID IN PREPARING THE MEDICINE OF TREATING NEURONS DAMAGING” (priority 2006, published 2010).
# Columns and labels:
# [1] = tested on: rat cerebellar granule neurons (CGNs); experiment: Hypoxia/reoxygenation (H/R) induced death of in vitro cultured cerebellar granule neurons; assay type: cell-based; details: for CGNs morphology under inverted fluorescence microscope: pre-treated 3 h with 10 μM MK801 or 12 μM YC-1 or 12 μM YC-2, then 3 h hypoxia and 24 h reoxygenation
# Method: 1) Culture of Rat Cerebellar Granule Neurons (CGNs)
# According to Yan, etc, the neurons were prepared as follows:
# (1) A clean 7-8 d SD rat weighing about 15-20 g was taken and the cerebella was separated under sterile condition.
# (2) The meninges and vessels were gotten rid of in Kreb's anatomy solution (Ca^2+ and Mg^2+ free).
# (3) The cerebella was sheared into pieces of 1 mm^3 with ophthalmic scissors.
# (4) Digested in 0.25 g/L trypsin solution for 15 min at 37.
# (5) The digestion was stopped with solution containing 0.5 g/L trypsin inhibitor and 0.05 g/L Dnase I and pipetted up and down to get single cell suspension.
# (6) The single cell suspension was centrifuged at 200 g for 5 min, the precipitation was rinsed once with rinse solution.
# (7) Span down again at 200 g for 5 min, the supernatant was discarded.
# (8) The cell pellet was diluted to cell density of 1.5-1.8×10^6 cells/ml with BME medium containing 10% (v/v) FBA and 25 mM KCl.
# (9) They were inoculated into cell culture dishes pre-coated with polylysine and incubated at 370 incubator with 5% CO2.
# (10) Twenty-four hours after inoculation, 10 μmol/L Ara-C was added to inhibit non-neuron cells' growth and proliferation and to make the purity of CGNs above 95%.
# (11) Glucose was added to 5 mM on day 7 incubation to supplement energy needed by cell metabolism.
# (12) The experiment on day 8.
# 2). Establishment of CGNs Hypoxia/Reoxygenation (H/R) Injury Model
# Referred to Seko (Seko Y, To be K, Ueki K, et al. Hypoxia and hypoxia/reoxygenation activate Raf-1, mitogen-activated protein kinase kinase, mitogen-activated protein kinases, and S6 kinase in cultured rat cardiac myocytes. Circ Res. 1996 January; 78(1):82-90) etc for the establishment method:
# (1) On day 8, the treated CGNs were put in airtight box with oxygen consumption reagent and indicator and incubated at 37° for 3 h.
# (2) The cells were transferred to 370 incubator with 5% CO2 for reoxygenation treatment.
# (3). Cell morphological observation and neuron viability measurement
# The following were done referring to Yan (Yan G M, Irwin R P, Lin S Z, et al. Diphenylhydantoin induces apoptotic cell death of cultured rat cerebellar granule neurons. J Pharmacol Exp Ther, 1995, 274(2): 983-8) et al.:
# (1) CGNs were cultured in 35 mm dishes, on day 8, the medium was removed after various factors treatment, the cells were rinsed twice with 4 PBS containing Ca^2+ and Mg^2+.
# (2) The cells were fixed with 40 g/L paraformaldehyde (40, dissolved in PBS) for 10 min.
# (3) The fixation solution was removed, the cells were rinsed twice with distilled water, air dried at 4°.
# (4) The cell morphological change was observed and randomly photographed under inverted fluorescence microscope (Olympus).
# [2] = tested on: New Zealand white rabbits with spinal cord ischemia; experiment: Abdominal aorta clipping induced rabbit spinal cord ischemia model; assay type: in vivo; details: 8 mg/Kg intravenous 30 min before ischemia
# Method: Method: Preparation of spinal cord ischemia model.
# 24 male New Zealand white rabbits were divided evenly into 3 groups (n=8):
# YC-1 group: 30 min before spinal cord ischemia, 8 mg/Kg YC-1 was intravenous injected through the rabbit's ear. DMSO group: same volume of DMSO (1 ml/Kg) was injected in the same way.
# Sham group: the abdominal aorta was exposed but wasn't clipped.
# Referring to Johnson etc, the model was prepared as follows:
# (1) The rabbits drinked freely but fasted one night before the operation.
# (2) The rabbit was anesthetized by injecting 3% sodium pentobarbital (30 mg/Kg) by ear intravenous. On the other side of the ear a vein-detaining needle (24 G) was set for medicine and other fluid infusion.
# (3) An artery-detaining needle (24 G) was set in the right ear artery for monitoring the proximal arterial pressure and blood sampling during the operation.
# (4) An artery-detaining needle (24 G) was set in a femoral artery for monitoring the distal arterial pressure during the operation.
# (5) The rabbit was supinely fixed and incised at the median abdomen; the abdominal aorta was exposed.
# (6) Injected heparin (150 U/Kg) through the vein-detaining needle, then the abdominal aorta was clipped at the 0.5-1.0 cm spot below origin of the left renal artery to cause spinal cord ischemia.
# (7) Once the abdominal aorta was blocked, the distal arterial pressure decreased immediately and the femoral arterial pulsation disappeared.
# (8) The clip was removed 20 min after ischemia and the abdomen was sutured.
# (9) Then intramuscularly injected 40,000 U gentamicin, the rabbit was returned back to cage and observed for 48 h.
# (10) The proximal arterial pressure, distal arterial pressure and heart rate (Spacelab, US) were continuously monitored during the operation. Rectum temperature was maintained at 38.5±0.5° by using heating pad and roasting lamp.
# (11) Blood gas (AVL-2, Switzerland) and glucose (One Touch II, USA) were monitored by ear artery blood sampling 10 min before ischemia, 10 min after ischemia and 10 min after reperfusion.
# [3] = tested on: rat cerebellar granule neurons (CGNs); experiment: Repolarization (low potassium, LK) induced death of in vitro cultured cerebellar granule neurons; assay type: cell-based
# Method: The methods for rat CGNs cell culture, cellular morphologic observation and neuronal viability measurement were the same as above. Then check the in vitro cultured cerebellar granule neurons death through agarose gel electrophoresis according to reference:
# (1) CGNs in […] dishes were inoculated.
# (2) On day 8, 24 h after adding various medicines, the medium was removed, the cells were rinsed twice with PBS.
# (3) The collected cells were spun down with a low temperature high speed centrifuge (Biofuge22R, Heraeus, Germany) at 5000 rpm, 4° for 5 min.
# (4) the cell pellet was resuspended with 600 μl buffer containing 10 mmol/L Tris-HCl, 10 mmol/L EDTA and 2 g/L Triton X-100 (pH 7.5) and incubated for 15 min.
# (6) The supernatant was extracted once with equal volume of phenol and spun down.
# (7) The supernatant was extracted once with equal volume of phenol-chloroform (1:1), spun down.
# (8) The supernatant was taken, 300 mmol/L Sodium Acetate and equal volume of isopropanol were added and precipitated for overnight.
# (9) The pellet was spun down and rinsed 2-3 times with 70% ethanol.
# (10) After drying, some TE (Tris 10 mmol L^−1, EDTA 1.0 mmol L^−1, pH 7.4, and 0.6 g·L^−1 RNase A) were added and incubated at 37° for 30 min.
# (11) The samples were analyzed with 20 g/L agarose gel electrophoresis for 1 h.
# (12) Dyed with ethidium bromide and photographed under UV light.
# [4] = tested on: rat cerebellar granule neurons (CGNs); experiment: Glutamic acid (Glu) induced death of in vitro cultured cerebellar granule neurons; assay type: cell-based
# Excerpt: (1) Isolatation and primary culture of rat CGNs.
# (2) Morphology observation of neuron cell body and processes under phase contrast microscopy.
# (3) Analysis of neuronal metabolic activity and viability using fluorescein diacetate (FDA) staining.
# [5] = tested on: SD rats with permanent middle cerebral artery occlusion (MCAO); experiment: MCAO induced rat cerebral ischemia model; assay type: in vivo
# Method: Method: Preparation of Rat Middle Cerebral Artery Occlusion (MCAO) Model
# 25 healthy male SD rats were divided into 3 groups randomly: YC-1 group (n=11): 10 min, 6 h, 24 h and 7 d after occluding the middle cerebral artery, 12 mg/Kg YC-1 was continuously injected intraperitoneally. DMSO group (n=11): same volume of DMSO (1 ml/Kg) was injected in the same way. Sham group (n=3): just very short intraluminal thread was inserted and didn't occlude the MCA.
# The following method was a modification of Zea Longa's method (Longa E Z, Weinstein P R, Carlson S, Cummins R. Reversible middle cerebral artery occlusion without craniectomy in rats. Stroke, 1989, 20: 84-91).
# (1) The rats drinked freely but fasted one night before the operation.
# (2) 10 min before anesthesia, atropine sulfate (0.5 mg/Kg) was intraperitoneally (ip) injected.
# (3) Narcotized the rat with ip injected 10% chloral hydrate, 3.5 ml anesthetic per Kg rat; The areflexia of hindlimb retraction and corneal were used as anesthesia index. […]
# (7) Rectum temperature was measured by using Meikangti electronic temperature measure instrument the whole process and it was strictly controlled at 36.5-37.5°. […]
smiles,measurement,setting,value
"C[C@]12N[C@H](Cc3ccccc31)c1ccccc12 [MK801, reference compound]",viability at 10 µM,"[1]; Rattus norvegicus, Neuron, 10 μM MK801 or 12 μM YC-1 or 12 μM YC-2, then H/R, H/R alone 16.56±3.21%, read-out: neuronal viability (FDA dye)",86.7 ± 3.21%
same,CGNs morphology under inverted fluorescence microscope,[1],"Most CGNs cell body kept intact, plump and lucent"
"C=C(CC[C@@H](C)[C@H]1CC[C@H]2[C@@H]3C[C@@H](O)[C@@]4(O)C[C@@H](O)CC[C@]4(CO)[C@H]3CC[C@]12C)C(C)C [YC-1, 24-methylene-cholest-3β,5α,6β,19-tetrol]",rabbits able to stand (hindlimb function),"[2]; rabbit spinal cord ischemia 20 min, n=8, no rabbit in DMSO group could stand",Six rabbits in the CPA (YC-1) group could stand
same,neurological function score,"[2]; rabbit spinal cord ischemia, each observation time point, versus DMSO group, p<0.05",obviously higher than that in DMSO group
same,lumbar spinal cord injury (histopathological examination),"[2]; rabbit spinal cord ischemia, versus DMSO group",obviously relieved
same,number of normal spinal cord anterior horn neurons,"[2]; rabbit spinal cord ischemia, versus DMSO group, p<0.01",increased evidently
same,CGNs morphology (cell bodies and processes),"[3]; 12 μM added 3 h before and at change to 5 mM KCl serum free medium, 24 h",most CGNs kept intact cell bodies and processes
same,CGNs survived (FDA staining),"[3]; 12 μM added 3 h before and at change to 5 mM KCl serum free medium, 24 h, low potassium alone 40.2±14.04%",94.3±14.02%
same,DNA fragments produced from LK induced CGNs apoptosis (agarose gel electrophoresis),[3]; FIG. 18,can reduce DNA fragments
same,Glu induced CGNs apoptosis (phase contrast microscopy),"[4]; 12 μM added 1 h before 150 μM Glu, observed 24 h later",obviously inhibited Glu induced CGNs apoptosis
same,CGNs' viability (FDA staining),"[4]; 12 μM, 150 μM Glu 24 h, Glu control group 29.5±8.23%",92.6±2.59%
same,brain tissue colour and morphology by visual inspection,"[5]; rat MCAO, 12 mg/Kg intraperitoneally, DMSO group showed obvious pallor and swelling",no obvious pallor and swelling
same,infarct size (TTC dye),"[5]; rat permanent MCAO, 12 mg/Kg YC-1 intraperitoneally at 10 min, 6 h, 24 h and 7 d after occlusion, DMSO group 62±8%",32±11%
same,neuronal viability (FDA dye),"[1]; 10 μM MK801 or 12 μM YC-1 or 12 μM YC-2, then H/R, H/R alone 16.56±3.21%",84.29±1.26%
same,nuclear morphology (Hoechst33258 dye),"[1]; 12 μM, then H/R treatment",Most CGNs showed normal nuclear morphology and even chromatin distribution
same,CGNs morphology under inverted fluorescence microscope,[1],"Most CGNs cell body kept intact, plump and lucent"
